Test results taken from US8058442B2 (Technion Research and Development Foundation Ltd., priority 2002, dated 2011).
Counter-ions that a name gives are not always drawn.

Experiments:
[1] = target: T1, rat brain MAO-A (Rattus norvegicus, UniProt P21396); assay: In vitro inhibition of rat brain MAO-A; assay type: biochemical; conditions: rat brain homogenate
T1 construct: from tissue; host or cells: rat brain homogenate, 4500 g pellet
T1 sequence (P21396 1-526): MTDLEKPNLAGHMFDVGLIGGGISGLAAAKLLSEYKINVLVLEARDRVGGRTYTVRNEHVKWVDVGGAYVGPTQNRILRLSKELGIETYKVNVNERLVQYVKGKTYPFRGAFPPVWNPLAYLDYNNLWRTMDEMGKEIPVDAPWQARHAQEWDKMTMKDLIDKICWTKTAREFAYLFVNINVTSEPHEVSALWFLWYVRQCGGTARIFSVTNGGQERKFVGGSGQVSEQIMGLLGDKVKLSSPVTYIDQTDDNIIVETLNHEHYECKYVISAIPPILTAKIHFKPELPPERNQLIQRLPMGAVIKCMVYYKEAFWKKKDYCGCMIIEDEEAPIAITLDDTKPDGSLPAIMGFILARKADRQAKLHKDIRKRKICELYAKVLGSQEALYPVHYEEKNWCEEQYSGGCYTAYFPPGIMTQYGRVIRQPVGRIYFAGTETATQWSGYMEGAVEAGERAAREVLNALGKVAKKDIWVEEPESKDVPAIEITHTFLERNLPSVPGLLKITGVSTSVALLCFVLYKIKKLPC
Description: (§1) Rats were decapitated and the brains were quickly taken into a weighted ice-cold sucrose buffer (0.32 M), and their weights were determined. All subsequent procedures were performed at 0-4° C. The brains were homogenized in 0.25 M sucrose (one part tissue to 20 parts sucrose) in a Teflon glass homogenizer followed by the addition of sucrose buffer to a final concentration of 10% homogenate. The homogenates were centrifuged at 600 g for 15 min. The supernatant fraction was taken out and centrifuged at 4500 g for 30 min, the pellet was diluted in 0.32 M sucrose buffer and kept frozen for later assaying of MAO. Protein concentration was determined with Bradford reagent at 595 nm, using bovine serum albumin as a standard.
(§2) The test compound was added to a suitable dilution of the enzyme preparation (70 μg protein for MAO-B and 150 μg MAO-A assay) in 0.05 M phosphate buffer (pH 7.4). The mixture was incubated together with […], a specific inhibitor of MAO-B (for determination of MAO-A) or […] clorgylin, a specific inhibitor of MAO-A (for determination of MAO-B). Incubation was carried for 1 h at 37° C. before addition of ^14C-5-hydroxytryptamine binoxalate ([…]) for determination of MAO-A, or ^14C-phenylethylamine 100 µM for determination of MAO-B, and incubation continued for 30 min or 20 min, respectively. The reaction was stopped with 2 M ice-cold citric acid, and the metabolites were extracted and determined by liquid-scintillation counting in cpm units.
(§3) MAO-A and MAO-B activities were determined in rat brain homogenate in vitro following incubation with varying concentrations of the test compounds.
In another experiment, the in vitro inhibitory activity of HLA20, M32, VK-28, M30, M31, and propargylamine (P) was tested against rat brain MAO-A. The test compounds were added to buffer containing 10^−7M deprenyl and were incubated with the tissue homogenate for 60 min at 37° C. before addition of ^14C-5-hydroxytryptamine. MAO-A activity in presence of the test compound was expressed as a percentage of that in control samples.

[2] = target: T2, rat brain MAO-B (Rattus norvegicus, UniProt P19643); assay: In vitro inhibition of rat brain MAO-B; assay type: biochemical; conditions: 100 μM; read-out: inhibition of MAO-B
T2 construct: from tissue; host or cells: rat brain homogenate, 4500 g pellet
T2 sequence (P19643 1-520): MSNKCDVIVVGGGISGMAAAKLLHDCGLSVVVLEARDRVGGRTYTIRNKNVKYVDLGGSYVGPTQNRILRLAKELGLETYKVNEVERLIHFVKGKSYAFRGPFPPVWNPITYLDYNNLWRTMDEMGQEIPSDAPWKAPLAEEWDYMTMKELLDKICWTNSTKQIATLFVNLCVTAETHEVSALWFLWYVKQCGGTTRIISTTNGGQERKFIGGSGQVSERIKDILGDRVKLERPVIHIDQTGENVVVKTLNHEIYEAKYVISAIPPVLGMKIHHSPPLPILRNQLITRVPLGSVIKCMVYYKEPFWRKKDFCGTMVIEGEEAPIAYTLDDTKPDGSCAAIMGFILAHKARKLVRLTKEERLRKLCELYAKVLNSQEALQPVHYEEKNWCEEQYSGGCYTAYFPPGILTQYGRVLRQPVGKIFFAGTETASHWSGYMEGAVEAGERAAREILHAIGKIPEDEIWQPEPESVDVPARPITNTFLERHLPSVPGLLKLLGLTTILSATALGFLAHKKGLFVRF
Description: as §1, §2, §3
MAO-B activity in presence of the test compound was expressed as a percentage of that in control samples.

[3] = test system: PC12 cells; assay: Neuroprotection of PC12 cells against serum-deprivation induced apoptosis (MTT test); assay type: cell-based, rat
Description: Rat PC12 cells, originated from rat pheochromocytoma, were grown at 37° C., in a humid 5% CO2, 95% air environment, in a growth medium containing Dulbecco's modified Eagle's Medium (DMEM, GIBCO, BRL) supplemented with glucose (1 mg/1 ml), 5% fetal calf serum, 10% horse serum, and 1% of a mixture of streptomycin/penicillin. On confluence, the culture was removed and the cells were detached by vigorous washing, centrifuged at 200 g for 5 min and resuspended in DMEM with full serum content. 0.5×10^4 cells/well were placed in microtiter plates (96 wells) precoated with collagen (10 μg/cm^2 were allowed to attach for 24 h before treatment).
Twenty-four hours after attachment of the PC12 cells as described in (g), the medium was replaced with DMEM containing 0.1% BSA. The test compounds were added to the cells after 1 h of incubation. After 24 h incubation, the cells were subjected to MTT test as previously described (Gassen et al., 1998). The absorption was determined in a Perkin-Elmer Dual Wavelength Eliza-Reader at λ=570/650 nm after automatic subtraction of background readings. The results are expressed as percentage of the untreated control.
PC12 cells were grown in serum-free medium alone or in serum-free medium with different concentration of the chelators VK-28, M32, HLA20 and Rasagiline. After 24 h incubation, the cells were subjected to MTT test.
Cell viability was expressed as a percentage of cells cultured in medium supplemented with serum, which served as the control group and was designated as 100%. […] Experimental data are shown as mean±SD (r=6).

Row | melting point | effect on MAO-A [1] | inhibition at 100 µM [2] [%] | Structure (SMILES) | number of survival cells (cell viability, % of cells cultured with serum) ([3]; 0.1 μM chelator, serum-free medium, 24 h, serum-free control 38%) [%] | change in the protection against PC12 cell death induced by serum withdrawal ([3]; 1 or 10 μM, compared with 0.1 μM)
1 | 194 °C (dec.) | – | – | NC(Cc1ccc(O)c2ncccc12)C(=O)O (racemic) (as salt: salt) [HLM8, DL-3-(8-hydroxyquinolin-5-yl)alanine] | – | –
2 | – | almost no effect | 17.2 | CCOC(=O)C(CS)NCc1ccc(O)c2ncccc12 (stereo not drawn) [Compound M32] | 59 | no significant change in the protection
3 | 153 to 154 °C | – | – | CCOC(=O)C(C)(NC(=O)Cc1ccc(O)c2ncccc12)C(=O)OCC [HLM7, diethyl 8-hydroxyquinolin-5-yl-methyl-acetamidomalonate] | – | –
